Values joined by “and” are separate entries in the source; they are usually repeats but may differ in a detail not shown here. Equal entries are not always repeated.
How the values were obtained:
SPP1 = assay: Microarray analysis of mononuclear cells, SPP1; assay type: cell-based, human; conditions: for SPP1 signal +, Average: 10 μM MGBG
Description: (§1) Blood samples were obtained from HIV infected patients (N=9) with positive viral load and reduced CD4 counts, and non-HIV infected, healthy controls (N=6). Blood was collected into heparin anticoagulant tubes and mononuclear cells were isolated by Percoll gradient centrifugation. The cells from each sample were split into 2: one-half receives MGBG at concentration of 10 μM and the other half received no treatment. All samples were then cultured overnight in RPMI media with 10% fetal bovine serum at 37° C. under non-adherent conditions. The next day cells were collected by centrifugation, washed one time with PBS, and lysed by resuspension in TRIZOL, and total RNA was prepared according to manufacturer's instructions (Invitrogen, Carlsbad, Calif.). […] The RNA was then amplified for microarray analysis using a 2 cycle amplification protocol according to the manufacturer's instructions (Affymetrix, Santa Clara, Calif.). The amplified RNAs were then hybridized to Human Genome U133 plus 2.0 microarrays (Affymetrix) and expression data was obtained using an Affymetrix scanner and GCOS protocols. Microarray data was analyzed with GeneSpring Microarray Suite. Results were normalized using a set of 100 probe sets determined by the manufacturer to have relatively invariant expression across most cell types.

CD14 = assay: QRT-PCR in CD14/CD16-separated cell fractions, CD14 RNA; assay type: cell-based, human; conditions: CD14/CD16++ macrophages, 10 μM MGBG, p=0.02
Description: (§2) The changes induced by MGBG in different blood cell types were determined for osteopontin and adenosine deaminase and 7 other genes. For this experiment, blood samples were obtained from 6 healthy controls (3 men/3 women from 20 to 55 years of age) and mononuclear cells were isolated via Percoll gradient centrifugation. The cells were then incubated for 3 hours in RPMI media plus 10% fetal bovine serum at 37 C. At that point MGBG was added to 10 μM to half of each sample and then the cells were incubated at 37 C for 20 more hours. The cells were then bound to magnetic beads coated with antibodies to human CD16. Bound cells (CD16 expressing) were separated from unbound cells using an AutoMACs according to manufacturer's instructions (Miltenyi, Auburn Calif.). Then CD16+ cells are released from the magnetic beads and both the CD16+ and CD16− cells are combined with magnetic beads coated with antibodies to human CD14. Antibody bound and unbound cells were then separated using the AutoMACs machine. […] Cells that neither express CD16 nor CD14 (the −/− Cells). This is mostly T lymphocytes; 2. Cells that only express CD16. This includes contaminating granulocytes not removed by Percoll centrifugation and CD16+ monocytes with very low CD14 expression; 3. […] After separation, cells of each fraction are washed with PBS and the number of viable cells determined by trypan blue exclusion. […]

IL1RN = assay: Quantitative RT-PCR, unsorted mononuclear cells, IL1RN; assay type: cell-based, human
Description: To evaluate the effect of MGBG on gene expression, blood samples were obtained from patients (N=18, 10 HIV-infected and 8 Healthy Controls). Mononuclear cells were isolated via Percoll gradient centrifugation. The cells were split into two tubes, one treated with 10 μM of MGBG and the other non-treated. The cells were then cultured overnight in RPMI media plus 10% fetal bovine serum at 37 C under non-adherent conditions, collected, lysed using Trizol solution, and total RNA prepared according to manufacturer's instructions (Invitrogen, Carlsbad, Calif.).
Approximately 200 ng of total RNA prepared from each sample was converted to cDNA using the First Strand cDNA Synthesis Kit for RT-PCR [AMV] kit (Roche Applied Diagnostics, Indianapolis, Ind.) according to manufacturer's instructions. Around 5 ng of cDNA sample was then used for PCR performed on a LightCycler (Roche Applied Diagnostics, Indianapolis, Ind.) using the LightCycler FastStart DNA Master SYBR Green I kit. PCR conditions are as follows: 1 cycle of denaturation at 95° C. for 10 minutes, followed by 45 cycles of 95° C. for 10 seconds, 68° C. for 10 seconds, and 72° C. for 16 seconds.
The sequences of gene-specific primers evaluated are listed below. All samples were also amplified with the human β-actin LightCycler-Primer set (Roche Diagnostics).

OPN = OPN antibody staining of brains and lymph nodes of SIV-infected animals; assay type: in vivo, Rhesus macaques
Description: These monkeys were then treated with MGBG as described.

mononuclear cells = assay: Microarray analysis, number of probes changed; assay type: cell-based, human; conditions: average signals, MGBG vs untreated samples
Description: as §1

OPN protein = assay: OPN production inhibition assay in un-stimulated PBMC cultures, OPN protein; assay type: cell-based; conditions: 10 μM
Description: 10 μM of each drug was added to un-stimulated PBMC cultures at time=0 and cells were harvested 1,3, and 6 days later for quantitative OPN RNA and protein production analysis.

ADA = assay: Microarray analysis of mononuclear cells, ADA; assay type: cell-based, human; conditions: for ADA signal +, Average: 10 μM MGBG
Description: as §1

FCGR1a = assay: Microarray analysis of mononuclear cells, FCGR1a; assay type: cell-based, human; conditions: for FCGR1a signal +, Average: 10 μM MGBG
Description: as §1

TNFα [1] = assay: Microarray analysis of mononuclear cells, TNFα probe; assay type: cell-based, human
Description: as §1

TNFα [2] = assay: QRT-PCR in CD14/CD16-separated cell fractions, TNFα RNA; assay type: cell-based, human; conditions: monocytes, 10 μM MGBG, p=0.03
Description: as §2

SGNE1 = assay: Microarray analysis of mononuclear cells, SGNE1; assay type: cell-based, human; conditions: for SGNE1 signal +, Average: 10 μM MGBG
Description: as §1

HeLa cell = assay: Migration assay, HeLa cell invasion into a Matrigel matrix; assay type: cell-based; conditions: 10 μM MGBG
Description: Additionally, cells being targeted by MGBG were investigated. […] To elucidate the effects of MGBG and OPN on cell motility, migration assays were conducted. MGBG at 10 μM inhibited macrophage Osteopontin production from >200 ng/mL to nondetectable levels while simultaneously inhibiting HeLa cell invasion into a Matrigel matrix.

[3] = average of control samples (C6-, M6-177)
[4] = 10 μM, individual donor samples
[5] = presence of 10 μM MGBG overnight, individual donor samples
[6] = 10 μM MGBG, all unsorted samples

CC(/C=N/NC(=N)N)=N\NC(=N)N [MGBG, 1,1′ [methylethanediylidene]dinitrilodiguanidine]
SPP1 signal +, Average (SPP1; average of HIV samples): 498
SPP1 signal +, Average (SPP1; [3]): 633
SPP1 fold change, ON/MGBG ratio (down-regulation) (SPP1; [4]): 60.5 fold and 47.8 fold and 11.5 fold and 43.9 fold and 0.7 fold and 7.0 fold and 2.3 fold and 438.8 fold and 1.4 fold and 5.7 fold and 5.9 fold and 68.0 fold and 57.9 fold and 4.2 fold and 1.2 fold
samples with 2 fold or greater reductions in SPP1 signal (SPP1; of the 15 samples evaluated): 12
SPP1 signal + (SPP1; [5]): 1480 and 113 and 34 and 143 and 458 and 53 and 81 and 264 and 232 and 1519 and 1647 and 64 and 22 and 1684 and 487
CD14 RNA median signal relative to no MGBG (CD14): 0.55
Fold change IL1RN by QRT-PCR (IL1RN; 10 μM MGBG overnight, untreated vs treated, negative = fold reduction, individual samples): −10.41 fold and −3.73 fold and 1.12 fold and −1.73 fold and −1.36 fold and −14.22 fold and −1.87 fold and −1.78 fold and 8.63 fold and −2.27 fold and 1.59 fold and −8.17 fold and −19.56 fold and −1.77 fold and −4.92 fold and −2.31 fold and −8.28 fold and −17.75 fold
Fold change IL1RN, AVERAGE (IL1RN; [6]): −4.9 fold
Fold change IL1RN, MAX (IL1RN; [6]): 8.6 fold
Fold change IL1RN, MIN (IL1RN; [6]): −19.6 fold
IL1RN % >2 fold Changed (IL1RN; share of samples, 10 μM MGBG): 55%
samples with IL1RN down-regulated (IL1RN; unsorted samples): 15 out of 18
OPN in brains, antibody staining (OPN; FIG. 10, treated SIV-infected animals): complete removal of OPN
OPN staining in lymph nodes (OPN; FIG. 11, treated animals B146 and CB18): markedly decreased levels of OPN
probes down-regulated at least 1.5 fold (mononuclear cells): 489 probes
probes up-regulated at least 1.5 fold (mononuclear cells): 382 probes
OPN protein production (OPN protein): Complete inhibition
ADA signal +, Average (ADA; average of HIV samples): 4029
ADA signal +, Average (ADA; [3]): 5520
ADA fold change, MGBG/ON ratio (up-regulation) (ADA; [4]): 3.2 fold (2×) and 2.9 fold and 5.6 fold and 3.6 fold (2×) and 3.7 fold and 4.2 fold and 51.2 fold and 14.6 fold and 5.9 fold and 2.0 fold and 18.3 fold and 2.3 fold and 22.3 fold
ADA regulation by MGBG (ADA; all samples tested): consistently up-regulated
ADA signal + (ADA; [5]): 769 and 6724 and 6874 and 1964 and 7488 and 5384 and 2900 and 5895 and 5781 and 6428 and 6731 and 1845 and 4290 and 832 and 5472
FCGR1a signal +, Average (FCGR1a; average of HIV samples): 439
FCGR1a signal +, Average (FCGR1a; [3]): 608
FCGR1A fold change, ON/MGBG ratio (down-regulation) (FCGR1a; [4]): 9.2 fold and 1.3 fold and 0.3 fold (3×) and 0.9 fold (2×) and 0.1 fold and 4.3 fold and 2.7 fold and 2.5 fold and 2.2 fold and 0.4 fold and 12.3 fold and 1.0 fold
samples with FCGR1A down-regulated more than 2 fold (FCGR1a; HIV samples): 6 of 9
FCGR1a signal + (FCGR1a; [5]): 415 and 461 and 59 and 800 and 1561 and 136 and 51 and 612 and 53 and 1362 and 1435 and 264 and 33 and 14 and 347
samples less than 2 fold changed, TNFα probe (TNFα [1]; HIV infected individuals): 6 out of 9
samples less than 2 fold changed, TNFα probe (TNFα [1]; controls): 2 out of 6
average change for the TNFα Probe set, up-regulated (TNFα [1]; presence of MGBG, all samples): 8.7 fold
TNFα RNA median signal relative to no MGBG (TNFα [2]): 0.32
SGNE1 signal +, Average (SGNE1; average of HIV samples): 23
SGNE1 signal +, Average (SGNE1; [3]): 13
SGNE1 fold change, ON/MGBG ratio (down-regulation) (SGNE1; [4]): 3.3 fold and 7.4 fold and 1.9 fold and 14.4 fold and 53.3 fold and 4.7 fold and 9.3 fold and 58.8 fold and 2.4 fold and 3.0 fold and 45.5 fold and 159.8 fold and 10.1 fold and 63 fold and 0.8 fold
samples with 2 fold or greater reductions in SGNE1 signal (SGNE1; of the 15 samples evaluated): 13
SGNE1 signal + (SGNE1; [5]): 17 and 7 and 10 and 13 (3×) and 12 and 2 (2×) and 3 and 45 and 14 and 8 and 79 and 44
HeLa cell invasion into a Matrigel matrix (HeLa cell): inhibiting
